Where two headings read alike, the source gives them in different places.
O=C(Nc1ccc(Oc2ccnc3c2CCN3)c(F)c1)c1c[nH]cc(-c2ccc(F)cc2)c1=O
2 (16.7) n (%): TRAE Constipation, any grade (300 mg QD (n=12)) | TRAE Decreased Ccr, any grade (300 mg QD (n=12)) | TRAE Decreased appetite, any grade (300 mg QD (n=12)) | TRAE Elevated AST, any grade (300 mg QD (n=12))
0 n (%): TRAE Accessory nerve disorder, grade 3-4 (300 mg QD (n=12)) | TRAE Activated partial thromboplastin time prolonged, grade 3-4 (300 mg QD (n=12)) | TRAE Anaemia, any grade (300 mg QD (n=12)) | TRAE Anaemia, grade 3-4 (300 mg QD (n=12)) | TRAE Anaesthesia oral, any grade (300 mg QD (n=12)) | TRAE Anaesthesia oral, grade 3-4 (300 mg QD (n=12)) | TRAE Arrhythmia, any grade (300 mg QD (n=12)) | TRAE Arrhythmia, grade 3-4 (300 mg QD (n=12)) | TRAE Arthralgia, any grade (300 mg QD (n=12)) | TRAE Arthralgia, grade 3-4 (300 mg QD (n=12)) | TRAE Asthenia, any grade (300 mg QD (n=12)) | TRAE Asthenia, grade 3-4 (300 mg QD (n=12)) | TRAE Blister, any grade (300 mg QD (n=12)) | TRAE Blister, grade 3-4 (300 mg QD (n=12)) | TRAE Chest discomfort, grade 3-4 (300 mg QD (n=12)) | TRAE Chronic kidney disease, any grade (300 mg QD (n=12)) | TRAE Chronic kidney disease, grade 3-4 (300 mg QD (n=12)) | TRAE Constipation, grade 3-4 (300 mg QD (n=12)) | TRAE Cough, any grade (300 mg QD (n=12)) | TRAE Cough, grade 3-4 (300 mg QD (n=12)) | TRAE Decreased Ccr, grade 3-4 (300 mg QD (n=12)) | TRAE Decreased appetite, grade 3-4 (300 mg QD (n=12)) | TRAE Diarrhoea, grade 3-4 (300 mg QD (n=12)) | TRAE Dizziness, grade 3-4 (300 mg QD (n=12)) | TRAE Dry mouth, grade 3-4 (300 mg QD (n=12)) | TRAE Dysgeusia, grade 3-4 (300 mg QD (n=12)) | TRAE Dyskinesia, any grade (300 mg QD (n=12)) | TRAE Dyskinesia, grade 3-4 (300 mg QD (n=12)) | TRAE Dysphonia, any grade (300 mg QD (n=12)) | TRAE Dysphonia, grade 3-4 (300 mg QD (n=12)) | TRAE Dyspnoea, any grade (300 mg QD (n=12)) | TRAE Dyspnoea, grade 3-4 (300 mg QD (n=12)) | TRAE Electrocardiogram QT prolonged, grade 3-4 (300 mg QD (n=12)) | TRAE Elevated ALT, grade 3-4 (300 mg QD (n=12)) | TRAE Elevated AST, grade 3-4 (300 mg QD (n=12)) | TRAE Elevated D dimer, any grade (300 mg QD (n=12)) | TRAE Elevated D dimer, grade 3-4 (300 mg QD (n=12)) | TRAE Elevated GGT, any grade (300 mg QD (n=12)) | TRAE Elevated GGT, grade 3-4 (300 mg QD (n=12)) | TRAE Elevated LDH, any grade (300 mg QD (n=12)) | TRAE Elevated LDH, grade 3-4 (300 mg QD (n=12)) | TRAE Elevated alpha-HBDH, any grade (300 mg QD (n=12)) | TRAE Elevated alpha-HBDH, grade 3-4 (300 mg QD (n=12)) | TRAE Elevated bilirubin, any grade (300 mg QD (n=12)) | TRAE Elevated bilirubin, grade 3-4 (300 mg QD (n=12)) | TRAE Elevated blood creatinine, grade 3-4 (300 mg QD (n=12)) | TRAE Elevated creatine phosphokinase, any grade (300 mg QD (n=12)) | TRAE Elevated creatine phosphokinase, grade 3-4 (300 mg QD (n=12)) | TRAE Elevated serum urea, grade 3-4 (300 mg QD (n=12)) | TRAE Elevated troponin, any grade (300 mg QD (n=12)) | TRAE Elevated troponin, grade 3-4 (300 mg QD (n=12)) | TRAE Genital rash, any grade (300 mg QD (n=12)) | TRAE Genital rash, grade 3-4 (300 mg QD (n=12)) | TRAE Haematuria, any grade (300 mg QD (n=12)) | TRAE Haematuria, grade 3-4 (300 mg QD (n=12)) | TRAE Headache, grade 3-4 (300 mg QD (n=12)) | TRAE Hyperhidrosis, any grade (300 mg QD (n=12)) | TRAE Hyperhidrosis, grade 3-4 (300 mg QD (n=12)) | TRAE Hyperlipidaemia, any grade (300 mg QD (n=12)) | TRAE Hyperlipidaemia, grade 3-4 (300 mg QD (n=12)) | TRAE Hypertension, grade 3-4 (300 mg QD (n=12)) | TRAE Hypoaesthesia oral, any grade (300 mg QD (n=12)) | TRAE Hypoaesthesia oral, grade 3-4 (300 mg QD (n=12)) | TRAE Hypocalcaemia, any grade (300 mg QD (n=12)) | TRAE Hypocalcaemia, grade 3-4 (300 mg QD (n=12)) | TRAE Hypotension, grade 3-4 (300 mg QD (n=12)) | TRAE Insomnia, grade 3-4 (300 mg QD (n=12)) | TRAE Leukopenia, any grade (300 mg QD (n=12)) | TRAE Leukopenia, grade 3-4 (300 mg QD (n=12)) | TRAE Nausea, grade 3-4 (300 mg QD (n=12)) | TRAE Neuritis, any grade (300 mg QD (n=12)) | TRAE Neuritis, grade 3-4 (300 mg QD (n=12)) | TRAE Occult blood, any grade (300 mg QD (n=12)) | TRAE Occult blood, grade 3-4 (300 mg QD (n=12)) | TRAE Oedema peripheral, any grade (300 mg QD (n=12)) | TRAE Oedema peripheral, grade 3-4 (300 mg QD (n=12)) | TRAE Onycholysis, any grade (300 mg QD (n=12)) | TRAE Onycholysis, grade 3-4 (300 mg QD (n=12)) | TRAE Oropharyngeal pain, any grade (300 mg QD (n=12)) | TRAE Oropharyngeal pain, grade 3-4 (300 mg QD (n=12)) | TRAE PPE, grade 3-4 (300 mg QD (n=12)) | TRAE Paraesthesia, any grade (300 mg QD (n=12)) | TRAE Paraesthesia, grade 3-4 (300 mg QD (n=12)) | TRAE Proteinuria, any grade (300 mg QD (n=12)) | TRAE Proteinuria, grade 3-4 (300 mg QD (n=12)) | TRAE Pruritus, any grade (300 mg QD (n=12)) | TRAE Pruritus, grade 3-4 (300 mg QD (n=12)) | TRAE Rash maculo-papular, grade 3-4 (300 mg QD (n=12)) | TRAE Sinus tachycardia, any grade (300 mg QD (n=12)) | TRAE Sinus tachycardia, grade 3-4 (300 mg QD (n=12)) | TRAE Skin fissures, any grade (300 mg QD (n=12)) | TRAE Skin fissures, grade 3-4 (300 mg QD (n=12)) | TRAE Supraventricular extrasystoles, any grade (300 mg QD (n=12)) | TRAE Supraventricular extrasystoles, grade 3-4 (300 mg QD (n=12)) | TRAE Thrombocytopenia, any grade (300 mg QD (n=12)) | TRAE Thrombocytopenia, grade 3-4 (300 mg QD (n=12)) | TRAE Upper respiratory tract infection, grade 3-4 (300 mg QD (n=12)) | TRAE Urinary retention, any grade (300 mg QD (n=12)) | TRAE Urinary retention, grade 3-4 (300 mg QD (n=12)) | TRAE Urinary tract infection, any grade (300 mg QD (n=12)) | TRAE Urinary tract infection, grade 3-4 (300 mg QD (n=12)) | TRAE Ventricular arrhythmia, grade 3-4 (300 mg QD (n=12)) | TRAE Ventricular extrasystoles, grade 3-4 (300 mg QD (n=12)) | TRAE Vomiting, any grade (300 mg QD (n=12)) | TRAE Vomiting, grade 3-4 (300 mg QD (n=12)) | TRAE Weight loss, any grade (300 mg QD (n=12)) | TRAE Weight loss, grade 3-4 (300 mg QD (n=12)) | TRAE Accessory nerve disorder, any grade (400 mg BID (n=4)) | TRAE Accessory nerve disorder, grade 3-4 (400 mg BID (n=4)) | TRAE Activated partial thromboplastin time prolonged, any grade (400 mg BID (n=4)) | TRAE Activated partial thromboplastin time prolonged, grade 3-4 (400 mg BID (n=4)) | TRAE Anaemia, any grade (400 mg BID (n=4)) | TRAE Anaemia, grade 3-4 (400 mg BID (n=4)) | TRAE Anaesthesia oral, any grade (400 mg BID (n=4)) | TRAE Anaesthesia oral, grade 3-4 (400 mg BID (n=4)) | TRAE Arrhythmia, any grade (400 mg BID (n=4)) | TRAE Arrhythmia, grade 3-4 (400 mg BID (n=4)) | TRAE Arthralgia, any grade (400 mg BID (n=4)) | TRAE Arthralgia, grade 3-4 (400 mg BID (n=4)) | TRAE Asthenia, any grade (400 mg BID (n=4)) | TRAE Asthenia, grade 3-4 (400 mg BID (n=4)) | TRAE Blister, any grade (400 mg BID (n=4)) | TRAE Blister, grade 3-4 (400 mg BID (n=4)) | TRAE Chest discomfort, any grade (400 mg BID (n=4)) | TRAE Chest discomfort, grade 3-4 (400 mg BID (n=4)) | TRAE Chronic kidney disease, any grade (400 mg BID (n=4)) | TRAE Chronic kidney disease, grade 3-4 (400 mg BID (n=4)) | TRAE Constipation, any grade (400 mg BID (n=4)) | TRAE Constipation, grade 3-4 (400 mg BID (n=4)) | TRAE Cough, any grade (400 mg BID (n=4)) | TRAE Cough, grade 3-4 (400 mg BID (n=4)) | TRAE Decreased Ccr, any grade (400 mg BID (n=4)) | TRAE Decreased Ccr, grade 3-4 (400 mg BID (n=4)) | TRAE Decreased appetite, any grade (400 mg BID (n=4)) | TRAE Decreased appetite, grade 3-4 (400 mg BID (n=4)) | TRAE Diarrhoea, any grade (400 mg BID (n=4)) | TRAE Diarrhoea, grade 3-4 (400 mg BID (n=4)) | TRAE Dizziness, any grade (400 mg BID (n=4)) | TRAE Dizziness, grade 3-4 (400 mg BID (n=4)) | TRAE Dry mouth, any grade (400 mg BID (n=4)) | TRAE Dry mouth, grade 3-4 (400 mg BID (n=4)) | TRAE Dysgeusia, any grade (400 mg BID (n=4)) | TRAE Dysgeusia, grade 3-4 (400 mg BID (n=4))
3 (25.0) n (%): TRAE Elevated ALT, any grade (300 mg QD (n=12)) | TRAE Elevated blood creatinine, any grade (300 mg QD (n=12)) | TRAE Nausea, any grade (300 mg QD (n=12))
1 (8.3) n (%): TRAE Accessory nerve disorder, any grade (300 mg QD (n=12)) | TRAE Activated partial thromboplastin time prolonged, any grade (300 mg QD (n=12)) | TRAE Chest discomfort, any grade (300 mg QD (n=12)) | TRAE Diarrhoea, any grade (300 mg QD (n=12)) | TRAE Dizziness, any grade (300 mg QD (n=12)) | TRAE Dry mouth, any grade (300 mg QD (n=12)) | TRAE Dysgeusia, any grade (300 mg QD (n=12)) | TRAE Electrocardiogram QT prolonged, any grade (300 mg QD (n=12)) | TRAE Elevated serum urea, any grade (300 mg QD (n=12)) | TRAE Headache, any grade (300 mg QD (n=12)) | TRAE Hypertension, any grade (300 mg QD (n=12)) | TRAE Hypotension, any grade (300 mg QD (n=12)) | TRAE Insomnia, any grade (300 mg QD (n=12)) | TRAE PPE, any grade (300 mg QD (n=12)) | TRAE Rash maculo-papular, any grade (300 mg QD (n=12)) | TRAE Upper respiratory tract infection, any grade (300 mg QD (n=12)) | TRAE Ventricular arrhythmia, any grade (300 mg QD (n=12)) | TRAE Ventricular extrasystoles, any grade (300 mg QD (n=12))
